According to patent US10010585B2, “Methods of treating vestibular schwannoma and reducing hearing or neurite loss caused by vestibular schwannoma” (Massachusetts Eye and Ear Infirmary, priority 2014, dated 2018):

Key:
primary VS cells [1] = assay: BrdU proliferation assay in primary VS cultures; format: cell-based, human; conditions: for proliferation, of the NT cells / proliferation, of the non-treated cells: 48 hours
Procedure: Proliferation rate of 12 VS cultures was assessed and correlated with the tumor volume in the latest gadolinium enhanced T1-weighted MRI scan prior to surgical resection, and with tumor growth in vivo, measured as changes in the tumor's volume over time calculated from serial MRI scans. Tumor growth was standardized by dividing the growth rate by the initial tumor volume. Separate analyses were performed for solid tumors, which generally account for approximately 96% of VSs (Charabi et al., 1994), versus all studied tumors, which included 4 out of 13 total tumors with a visible cystic component, because cystic components could misrepresent true tumor volume (Charabi et al., 1994). To determine the level of cell proliferation in the cultures, Bromodeoxyuridine (BrdU) was added to the cells at a concentration of 10 μg/ml 20 hours before the cells were fixed. The cells were kept in the dark after the addition of BrdU Immunofluorescence protocol was followed as described under ‘Immunofluorescence,’ and cell and nuclear membranes were permeablized by incubation in 1% Triton-X for 10 minutes and by incubation in 2N Hydrochloric acid for 20 minutes, respectively, after fixation. Primary antibody against BrdU (AbD Serotec, NC, 1:200) and anti-rat IgG (Life Technologies, NY, 1:1000) were used. BrdU- and Hoechst-stained nuclei were counted in 3-5 fields and the ratio of BrdU positive to Hoechst positive nuclei was used to determine the proliferation rate in vitro. […]
(§1) Cultured human primary VS cells, primary SCs and HEI-193 cells were treated with NF-κB inhibitors BAY11-7082 (BAY11) or curcumin for 48 hours (Santa Cruz Biotechnology). BAY11 or curcumin, diluted in 100% DMSO, were mixed to the accurate concentrations in warmed media and applied to the cultures (with DMSO concentration in media being 1% maximum), alongside a no-treatment control receiving media alone with appropriate corresponding DMSO levels. Experiments were performed in media fortified with antibiotics and serum (same formulation as described in Example 1 for culturing cells).
(§2) After 48 hours of treatment, primary VS and Schwann cultures were fixed for BrdU staining, to visualize proliferation, or TUNEL staining, to visualize cell death. The same methodology as described in Example 1 was utilized. Cleaved caspase 3 staining, another apoptosis marker to reinforce findings using TUNEL, was conducted using an antibody against cleaved caspase 3 following the ‘immunofluorescence’ protocol outlined in Example 1.
(§3) The cultures were incubated with the drugs for 48 hours. To label proliferating cells, BrdU was added 20 hours before fixation. pH was measured in the media after drug addition to ensure no significant deviations.
(§4) After 48 hours of treatment with salicylates, primary VS and SC cultures were fixed for BrdU staining, to visualize proliferation, or TUNEL staining, to visualize cell death. The same methodology as described in Example 1 was utilized.
To understand cross-talk between HGF and VEGF-A pathway, cultured VS cells were incubated with Life Technologies silencer select siRNAs targeting VEGFA (s461) or MET (s8700). To understand whether HGF signaling contributed to VS proliferation, cultured VS cells were treated with MET inhibitor SU11274 (Sigma-Aldrich, MO, #S9820). Seventy-two hours after siRNA treatment or 12 hours after treatment with SU11274 (2 μM), cells were incubated with 10 μg/mL BrdU (Life Technologies, NY, # B23151) for 20 hours before fixation.

primary VS cells [2] = assay: TUNEL cell death assay in primary VS cultures; format: cell-based, human; conditions: 48 hours
Procedure: Rate of apoptosis in 6 VS cultures was assessed and correlated with tumor growth in vivo and tumor volume. […] Apoptosis was measured using terminal deoxynucleotidyl transferase dUTP nick end labeling (TUNEL, Roche Applied Sciences, NY) following manufacturer's instructions. Briefly, immunofluorescence protocol was followed as described under ‘Immunofluorescence,’ until fixations, then the cells were washed with PBS thrice and incubated in 1% Triton-X for 10 minutes on shaker. The cells were washed with PBS once and incubated in TUNEL mix for 1 hour at 37° C., then for 30 minutes at RT on shaker. The cells were then incubated in rhodamine phalloidin (Life Technologies, NY, 1:40) and Hoechst stain for 20 minutes, washed with PBS thrice and mounted onto slides for imaging. TUNEL and Hoechst stained nuclei were counted in >3 fields and the ratio of TUNEL positive to Hoechst positive nuclei was used to determine apoptosis rate in vitro. A positive control of 10 minutes-DNAse (Roche Applied Sciences, NY) treatment prior to TUNEL labeling was utilized.
(§5) For siRNA treatment, cultured primary VS cells or HEI-193 cells were placed in antibiotic and serum free media overnight. The next day, the cells were incubated with Life Technologies siRNAs targeting NF-κB genes RELA and NF-κB1, with control cells being treated with vehicle only (Lipofectamine RNAiMax), for 5 days. Some cultures were also incubated with a fluorescent random Oligo (Life Technologies) along with vehicle to assess transfection efficiency. siRNA experiments were performed in antibiotic and serum free media.
BAY11 or curcumin, diluted in 100% DMSO, were mixed to the accurate concentrations in warmed media and applied to the cultures (with DMSO concentration in media being 1% maximum), alongside a no-treatment control receiving media alone with appropriate corresponding DMSO levels.
After 48 hours of treatment, primary VS and Schwann cultures were fixed for BrdU staining, to visualize proliferation, or TUNEL staining, to visualize cell death.
After 48 hours of treatment with salicylates, primary VS and SC cultures were fixed for BrdU staining, to visualize proliferation, or TUNEL staining, to visualize cell death.

primary SCs [3] = assay: BrdU proliferation assay in primary Schwann cell cultures; format: cell-based, human; conditions: 48 hours
Procedure: (§6) Proliferation rate of 12 VS cultures was assessed and correlated with the tumor volume in the latest gadolinium enhanced T1-weighted MRI scan prior to surgical resection, and with tumor growth in vivo, measured as changes in the tumor's volume over time calculated from serial MRI scans. Tumor growth was standardized by dividing the growth rate by the initial tumor volume. Separate analyses were performed for solid tumors, which generally account for approximately 96% of VSs (Charabi et al., 1994), versus all studied tumors, which included 4 out of 13 total tumors with a visible cystic component, because cystic components could misrepresent true tumor volume (Charabi et al., 1994). To determine the level of cell proliferation in the cultures, Bromodeoxyuridine (BrdU) was added to the cells at a concentration of 10 μg/ml 20 hours before the cells were fixed. The cells were kept in the dark after the addition of BrdU Immunofluorescence protocol was followed as described under ‘Immunofluorescence,’ and cell and nuclear membranes were permeablized by incubation in 1% Triton-X for 10 minutes and by incubation in 2N Hydrochloric acid for 20 minutes, respectively, after fixation. Primary antibody against BrdU (AbD Serotec, NC, 1:200) and anti-rat IgG (Life Technologies, NY, 1:1000) were used. BrdU- and Hoechst-stained nuclei were counted in 3-5 fields and the ratio of BrdU positive to Hoechst positive nuclei was used to determine the proliferation rate in vitro.
as §1, §2, §3, §4

[4] = test system: cochlear explant cultures (hair cells and neurites); assay: Murine cochlear explant culture, hair cell, neurite and fiber damage counts; format: cell-based, CBA/CaJ mice; conditions: 100 ng/mL FGF2 pre-application plus 1 mM gentamicin, 48 hours total
Description: To develop an animal model to study hearing loss due to VS, cochlear explant cultures were established from postnatal CBA/CaJ mice aged P3-P5 (Jackson Laboratory, ME). Briefly, after decapitating the mouse, temporal bones were dissected from the skull in Hank's Balanced Salt Solution (Life Technologies, NY). The otic capsule encasing the cochlea was dissected out from each temporal bone. The otic capsule was carefully stripped away and the spiral ligament was peeled away from the entire cochlea, starting from the base. The basal turn of cochlea was then isolated using the dissecting knife (Fine Science Tools, CA), discarding the apical turn hook region. The tectorial membrane and the Reissner's membrane were removed, leaving the organ of Corti intact with the spiral ganglion neuron region. This explant was cultured onto a 10 mm glass coverslip coated with CellTak (BD Biosciences, CA, #354241) in a 35 mm culture dish with 4 wells. Cells were cultured in 98% DMEM, 1% ampicillin and 1% N2 supplement.
To assess FGF2's otoprotective effect, cochlear explant cultures were treated with recombinant human FGF2±gentamicin. After culturing the explants overnight, media fortified with FGF2 (100 ng/mL) was applied. Twenty-four hours later media fortified with gentamicin (1 mM) and FGF2 (100 ng/mL) was applied. […] Cochlear explants were fixed after an additional 24 hours of treatment, with total time being 48 hours.
After treatment, the explants were fixed and stained with antibodies against myosin 7A (Myo7A, Proteus Biosciences, CA) and β-tubulin (Tuj1, Covance, MA) to identify hair cells (HCs) and neurons, respectively. The same immunofluorescence protocol as described in Example 1 was used, with the exceptions of omission of […] HCl incubation, usage of 5% NHS with 1% Triton-X for blocking solution and 1% NHS with 0.4% Triton-X solution for primary antibody incubation at room temperature (RT). Secondary antibodies (Alexa Flour 555 anti-mouse and Alexa Four 488 anti-rabbit) were purchased from Life Technologies. Cochlear explants were imaged using a Leica TCS SP5 Confocal microscope. Zoomed-in pictures for the region of organ of Corti, including neurites, were merged in a z-stack to obtain a z-axis projection image in the Leica software. The number of hair cells (HCs) and neurites were manually counted per 100 μm length along the cochlea, with 1-2 samplings per specimen.
The same general methodology for murine cochlear explant cultures as described in Example 5 was utilized. Cochlear explant cultures were established from P2-P3 mice. Importantly, instead of only culturing the basal turn, the apical turn was also isolated, providing two pieces per cochlea with a greater frequency range. After approximately 12 hours, the cochlear explant cultures were treated for 48 hours with tumor secretions diluted to half their concentration. The formulation was 46.5% tumor-conditioned DMEM, 46.5% plain DMEM, 5% FBS, 1% ampicillin and 1% N2 supplement. Cochlear explants were treated with control media in parallel, being 46.5% DMEM incubated without tumor, 46.5% plain DMEM, 5% FBS, 1% ampicillin and 1% N2 supplement. All reagents were purchased from Life Technologies, NY. Osmolality in the solutions was measured in samples using a vapor-pressure osmometer (standardized with 290 mOsm/kg of 0.1567M sodium chloride solution) before applying them onto cochlear explants. Extra formulation for each VS secretion was made to be tested on Milliplex arrays and ELISA. Milliplex array, containing FGF2, VEGF-A and HGF beads (Millipore) and human TNFα ELISA (R&D Systems) were conducted as directed by the manufacturer on VS secretions prior to being applied onto the cochlear explant cultures.
Cochlear explants were fixed 48 hours after treatment and the same methodology for VS secretion application as described in Example 5 was utilized. […]

primary SCs [5] = assay: TUNEL cell death assay in primary Schwann cell cultures; format: cell-based, human; conditions: human, 48 h
Procedure: (§7) Rate of apoptosis in 6 VS cultures was assessed and correlated with tumor growth in vivo and tumor volume. Two out of the six VS had cystic components. Apoptosis was measured using terminal deoxynucleotidyl transferase dUTP nick end labeling (TUNEL, Roche Applied Sciences, NY) following manufacturer's instructions. Briefly, immunofluorescence protocol was followed as described under ‘Immunofluorescence,’ until fixations, then the cells were washed with PBS thrice and incubated in 1% Triton-X for 10 minutes on shaker. The cells were washed with PBS once and incubated in TUNEL mix for 1 hour at 37° C., then for 30 minutes at RT on shaker. The cells were then incubated in rhodamine phalloidin (Life Technologies, NY, 1:40) and Hoechst stain for 20 minutes, washed with PBS thrice and mounted onto slides for imaging. TUNEL and Hoechst stained nuclei were counted in >3 fields and the ratio of TUNEL positive to Hoechst positive nuclei was used to determine apoptosis rate in vitro. A positive control of 10 minutes-DNAse (Roche Applied Sciences, NY) treatment prior to TUNEL labeling was utilized.
as §1, §2

HEI-193 NF2 VS cell line [6] = assay: BrdU proliferation assay in HEI-193 cells; format: cell-based, human; conditions: 48 hours
Procedure: as §6
(§8) The same methodology as described in Example 1 was utilized for primary VS and SC cultures. Cultures were treated with NF-κB inhibitors approximately after 2 weeks of culturing. HEI-193 cell line was a gift from Dr. Giovannini at the House Ear Institute (Hung et al., 2002a).
as §5, §1, §2

HEI-193 NF2 VS cell line [7] = assay: TUNEL cell death assay in HEI-193 cells; format: cell-based, human; conditions: 48 hours
Procedure: as §7, §8, §5, §1, §2

## Nc1ccc(O)c(C(=O)O)c1 [5-ASA, 5-aminosalicylic acid]
Primary VS cells [1]; 5 mM
  proliferation, of the NT cells: 55%
Primary VS cells [1]; 10 mM
  proliferation, of the NT cells: 54.8±16.5%
Primary VS cells [2]; 5 mM
  cell death rate: 5.6±3.2%
Primary SCs [3]; 5 mM
  proliferation, of the NT cells: 107.8±22.4%
Primary SCs [3]; 10 mM
  proliferation, of the NT cells: 109.7±26.7%

## FGF2: recombinant human FGF2
[4]
  number of neurites per 100 μm: 13.7±5.5 per 100 μm
  total number of HCs per 100 μm length: 15.0±4.6 per 100 μm

## Cc1[nH]c(/C=C2\C(=O)Nc3ccc(S(=O)(=O)N(C)c4cccc(Cl)c4)cc32)c(C)c1C(=O)N1CCN(C)CC1 [SU11274]
Primary VS cells [1]; 2 μM, 12 hours then BrdU 20 hours
  proliferation, of VS cells treated with DMSO only: 22.4±11.7%

## COc1cc(/C=C/C(=O)CC(=O)/C=C/c2ccc(O)c(OC)c2)ccc1O [curcumin]
Primary VS cells [1]; 5 μM
  proliferation, of the non-treated cells: 141.8%±95.2%
Primary VS cells [1]; 20 μM
  proliferation, of the non-treated cells: 23.0±20.9%
Primary VS cells [2]; 5 μM
  cell death rate: 11.6±6.3%
Primary VS cells [2]; 20 μM
  cell death rate: 1.8±1.0%
Primary VS cells [2]; 50 μM
  cell death rate: 73.3±6.3%
Primary SCs [3]; 5 μM
  normalized proliferation rate: 85.3±25.7%
Primary SCs [3]; 20 μM
  normalized proliferation rate: 31.0±18.3%
Primary SCs [3]; 50 μM
  normalized proliferation rate: 3.14%
Primary SCs [5]; 5 μM
  apoptosis / cell death rate: 1.3±0.3%
Primary SCs [5]; 20 μM
  cell death rate: 1.7±0.4%
Primary SCs [5]; 50 μM
  cell death rate: 52.2±14.9%
HEI-193 NF2 VS cell line [6]; 5 μM
  normalized proliferation rate: 95.0±1.6%
HEI-193 NF2 VS cell line [6]; 20 μM
  normalized proliferation rate: 0.4±0.4%
HEI-193 NF2 VS cell line [6]; 50 μM
  normalized proliferation rate: 2.3±2.3%
HEI-193 NF2 VS cell line [7]; 5 μM
  cell death rate: 0.3±0.1%
HEI-193 NF2 VS cell line [7]; 20 μM
  cell death rate: 77.3±8.4%
HEI-193 NF2 VS cell line [7]; 50 μM
  cell death rate: 97.8±1.5%
